{
  "source": "patent US6569846B1",
  "about": "“Palladium-substituted bacteriochlorophyll derivatives and use thereof” (Yeda Research and Development Co. Ltd., priority 1998, dated 2003)",
  "key": {"RIF-1 fibrosarcoma": {"test_system": "RIF-1 fibrosarcoma", "assay": "In vivo PDT of RIF-1 fibrosarcoma", "design": "key to Summary (cures), symbol: −: no response", "procedure": "Photodynamic therapy parameters: Mice with tumors measuring 5-7 mm in diameter were entered into PDT experiments. Three Pd-BPheid drug doses (1, 5 and 10 mg/kg) and two light doses (100 and 300 Joules/sq.cm) were evaluated. A formulation of Pd-BPheid dissolved in Cremophor was administered by i.v. tail injection. PDT light exposure was started either 15 minutes, 1 hour or 4 hours following injection. […] A titanium sapphire laser tuned to 757 nm was used as the light source for PDT. Laser generated light was coupled into quartz fibers for delivery of light to tumors. A light power density of 75 mW/sq.cm was used. Tumor size was measured 3 days per week following PDT treatments and the percentage of tumor cures (defined as no tumor recurrence for 40 days post treatment) was determined.\nIn vivo PDT Response: Tables 4 and 5 hereinafter provide summaries of the PDT treatment results for C3H mice transplanted with either the BA mammary carcinoma or the RIF-1 fibrosarcoma. Each table indicates the following parameters: 1) intravenous drug dose expressed in mg/kg; 2) laser treatment parameters, including the total light dose (J/cm^2), the wavelength (757 nm), the light dose rate (mW/cm^2), and the time interval ([…], 4) toxicity (four mice died shortly after treatment), 5) tumor regrowth (consisting of the number of days between PDT treatment and tumor recurrence) and 6) the number of mice (and percentage) with Pd-BPheid PDT induced tumor cures."}, "M2R mouse melanoma cells [1]": {"test_system": "M2R mouse melanoma cells", "assay": "Phototoxicity on M2R cells (Example 10, [3H]-thymidine incorporation)", "type": "cell-based", "settings": "pigments dissolved directly in culture medium containing 10% serum", "procedure": "The diluted pigments were added and the cells were incubated in the dark for four hours at 37° C. Prior to illumination, the cells were washed once and replaced with fresh culture medium. The plates were then illuminated from the bottom for 10 minutes at room temperature and placed in the culture incubator at 37° C. in the dark. […] The following control systems were used: Dark control—untreated cells kept in the dark; Light control—cells not treated with sensitizer that were illuminated; Dark toxicity—cells treated with pigment but kept in the dark."}, "M2R mouse melanoma cells [2]": {"test_system": "M2R mouse melanoma cells", "assay": "Phototoxicity on M2R cells (Example 11, [3H]-thymidine incorporation)", "type": "cell-based", "procedure": "For phototoxicity analysis cells (1×10^4 cells/well) were cultured in 96-well plates for 24 hours to an approximate density of 2×10^4 cells/well. Pigments were dissolved directly in culture medium or in ethanol 95% and further diluted in culture medium to a final concentration of 1% ethanol. The diluted pigments were added and the cells were incubated in the dark for four hours at 37° C. Prior to illumination, the cells were washed once and replaced with fresh culture medium. The plates were then illuminated from the bottom for 10 minutes at room temperature and placed in the culture incubator at 37° C. in the dark. Cell survival was determined 24 hours later. The following control systems were used: Dark control—untreated cells kept in the dark; Light control—cells not treated with sensitizer that were illuminated; Dark toxicity—cells treated with pigment but kept in the dark. Cell survival was determined by [^3H]-thymidine incorporation as described earlier (WO 97/19081). […]\n(iii) Phototoxicity study: Analysis was performed with the same protocol as described above (Example 10) with the following changes: Pd-BPheid was dissolved directly in medium containing 10% serum and then added to the cells. Survival of M2R cells was determined by [^3H]-thymidine incorporation and that of human HT29 cells with the MTT assay (Merlin J L et al., 1992 Eur. J. Cancer 28A: 1452-1458)."}, "[3]": {"settings": "1 mg/Kg i.v., 300 J/cm^2, 757 nm, 75 mW/cm^2, 15 min. interval"}, "[4]": {"settings": "5 mg/Kg i.v., 300 J/cm^2, 757 nm, 75 mW/cm^2, 1 HR. interval"}, "[5]": {"settings": "5 mg/Kg i.v., 300 J/cm^2, 757 nm, 75 mW/cm^2, 15 min. interval"}, "[6]": {"settings": "10 mg/Kg i.v., 100 J/cm^2, 757 nm, 75 mW/cm^2, 1 HR interval"}, "[7]": {"settings": "10 mg/Kg i.v., 100 J/cm^2, 757 nm, 75 mW/cm^2, 15 min. interval"}, "[8]": {"settings": "10 mg/Kg i.v., 300 J/cm^2, 757 nm, 75 mW/cm^2, 1 HR interval"}, "[9]": {"settings": "10 mg/Kg i.v., 300 J/cm^2, 757 nm, 75 mW/cm^2, 4 HR interval"}, "[10]": {"settings": "10 mg/Kg i.v., 300 J/cm^2, 757 nm, 75 mW/cm^2, 15 min. interval"}},
  "note": "Values joined by “and” are separate entries in the source; they are usually repeats but may differ in a detail not shown here. Identical values can stand only once.",
  "data": [
    {"smiles": "CC[C@H]1C2=NC(=Cc3c(C(C)=O)c(C)c4[n]3[Pd][n]3c(c(C)c5c3=C(C3=NC(=C4)[C@@H](C)[C@@H]3CCC(=O)O)[C@@H](C(=O)OC)C5=O)=C2)[C@@H]1C", "note": "[Pd-BPheid, Pd-bacteriopheophorbide a]", "values": [
      {"measurement": "Number of Animals with Primary Tumor Regrowth (Days to Recurrence)", "setting": "RIF-1 fibrosarcoma; [3]", "result": "2(1 day)"},
      {"measurement": "Summary (cures), symbol", "setting": "RIF-1 fibrosarcoma; [3]", "result": "−"},
      {"measurement": "Toxicity (Treatment associated death)", "setting": "RIF-1 fibrosarcoma; [3]", "result": 0},
      {"measurement": "Number of Animals with Primary Tumor Regrowth (Days to Recurrence)", "setting": "RIF-1 fibrosarcoma; [4]", "result": "1(4 days) and 1(2 days) and 1(7 days)"},
      {"measurement": "Toxicity (Treatment associated death)", "setting": "RIF-1 fibrosarcoma; [4]", "result": 0},
      {"measurement": "Number of Animals with Primary Tumor Regrowth (Days to Recurrence)", "setting": "RIF-1 fibrosarcoma; [5]", "result": "1(5 days) and 1(12 days)"},
      {"measurement": "Summary (cures) %", "setting": "RIF-1 fibrosarcoma; [5]", "result": 33.33, "unit": "%"},
      {"measurement": "Summary (cures), number of animals (days)", "setting": "RIF-1 fibrosarcoma; [5]", "result": "1(40 days)"},
      {"measurement": "Toxicity (Treatment associated death)", "setting": "RIF-1 fibrosarcoma; [5]", "result": 0},
      {"measurement": "Number of Animals with Primary Tumor Regrowth (Days to Recurrence)", "setting": "RIF-1 fibrosarcoma; [6]", "result": "2(3 days) and 1(6 days)"},
      {"measurement": "Toxicity (Treatment associated death)", "setting": "RIF-1 fibrosarcoma; [6]", "result": 0},
      {"measurement": "Number of Animals with Primary Tumor Regrowth (Days to Recurrence)", "setting": "RIF-1 fibrosarcoma; [7]", "result": "2(12 days) and 1(7 days)"},
      {"measurement": "Toxicity (Treatment associated death)", "setting": "RIF-1 fibrosarcoma; [7]", "result": 0},
      {"measurement": "Number of Animals with Primary Tumor Regrowth (Days to Recurrence)", "setting": "RIF-1 fibrosarcoma; [8]", "result": "1(20 days)"},
      {"measurement": "Summary (cures) %", "setting": "RIF-1 fibrosarcoma; [8]", "result": 25.00, "unit": "%"},
      {"measurement": "Summary (cures), number of animals (days)", "setting": "RIF-1 fibrosarcoma; [8]", "result": "1(40 days)"},
      {"measurement": "Toxicity (Treatment associated death)", "setting": "RIF-1 fibrosarcoma; [8]", "result": 2},
      {"measurement": "Toxicity (Treatment associated death), number of animals (day)", "setting": "RIF-1 fibrosarcoma; [8]", "result": "2(1 day)"},
      {"measurement": "Summary (cures), symbol", "setting": "RIF-1 fibrosarcoma; [9]", "result": "−"},
      {"measurement": "Toxicity (Treatment associated death)", "setting": "RIF-1 fibrosarcoma; [9]", "result": 0},
      {"measurement": "Summary (cures) %", "setting": "RIF-1 fibrosarcoma; [10]", "result": 33.33, "unit": "%"},
      {"measurement": "Toxicity (Treatment associated death)", "setting": "RIF-1 fibrosarcoma; [10]", "result": 2},
      {"measurement": "Toxicity (Treatment associated death), number of animals (day)", "setting": "RIF-1 fibrosarcoma; [10]", "result": "2(1 day)"},
      {"measurement": "effectiveness of PDT", "setting": "RIF-1 fibrosarcoma; 4-hour interval between drug administration and light treatment", "result": "not effective"},
      {"measurement": "effectiveness of PDT", "setting": "RIF-1 fibrosarcoma; light treatments initiated within 1 hour of drug administration", "result": "effective"},
      {"measurement": "phototoxic activity", "setting": "M2R mouse melanoma cells [1]", "result": "fully active"},
      {"measurement": "sensitivity of M2R cells relative to HT-29 cells", "setting": "M2R mouse melanoma cells [2]", "result": "about 10 times"}
    ]}
  ]
}
